Common to all, as to format: cell-based, human
For assay [1], the system named is MLR- or PHA-activated PBMCs. As to the kind of experiment: MSCs co-cultured with MLR- or PHA-activated PBMCs in medium supplemented with carbachol. The note with it: carbachol 10 pM added to MSCs culture medium under the inflammatory condition (FIGS. 15A to 15D).
The subject of a further assay is PHA-activated PBMCs. As to the kind of experiment: ELISA of proinflammatory cytokines, MSCs co-cultured with PHA-activated PBMCs, medium with nAChR antagonist or agonist. Here is the method:
(§1) The medium was harvested from nAChR antagonist or agonist-containing co-culture experiments. The secreted proinflammatory cytokines were quantified using the ELISA kits for TNF-α (BD Biosciences; cat. #555212) and IFN-γ (BD Biosciences; cat. #555141). The medium in which MLR- or PHA-activated PBMCs were cultured was used to carry out the assay for NGF (R&D Systems, Minneapolis, Minn., USA; cat. # DY256-05) and BDNF (R&D Systems; cat. # DBD00).
(§2) α-Bungarotoxin (EMD Millipore; cat. #203980), an nAChRα7 antagonist, was added to the medium at the concentration of […]. As cholinergic agonists, ACh chloride (Sigma; cat. # A6625) and carbachol (EMD Millipore; cat. #212385) were used at the concentrations of 1 nM and 10 pM, respectively, and the experiments were conducted.
(§3) In order to confirm ACh-nAChR pathway mechanism of MSCs under the inflammatory conditions, experiments were performed according to the methods described in Experimental Examples 1-2 and 1-10. The mixed lymphocyte reaction (MLR) condition was set such that PBMCs obtained from different donors were cultured together, and the phytohemagglutinin (PHA) treatment condition was set such that PBMCs were treated with PHA. According to inflammatory conditions, each PBMCs only group (P and Po) obtained from different donors; MSCs group co-cultured in mixed lymphocyte reaction (MLR) condition (MSC in MLR); mixed lymphocyte reaction condition group without MSCs (MLR); or MSCs group co-cultured in phytohemagglutinin (PHA) treatment condition (MSC in P^PHA) were placed. A cholinergic antagonist such as α-bungarotoxin (α-BTX, an antagonist of nAChRα7); a cholinergic agonist such as ACh chloride (ACh-Cl, an agonist of AChR); or a non-specific cholinergic agonist such as carbachol was added to the medium, and the activity of TNF-α and IFN-γ of MSCs by each inflammatory condition was confirmed. The results are illustrated in FIG. 14.
For orientation: ELISA stands for enzyme-linked immunosorbent assay.

For another assay, the system named is MLR-activated PBMCs. As to the kind of experiment: ELISA of proinflammatory cytokines, MSCs co-cultured with MLR-activated PBMCs, medium with nAChR antagonist or agonist. The method, then: as §1, §2, §3
[2] abbreviates: MSCs + PHA-activated PBMCs, α-BTX 1 M or ACh-Cl 1 nM added to the medium.
[3] abbreviates: MSCs + MLR-activated PBMCs, α-BTX 1 M or ACh-Cl 1 nM added to the medium.

Read-outs that look alike come from different tables or passages of the source.

For `C[N+](C)(C)CCOC(N)=O` [carbachol], in assay [1], the inflammatory cytokine release entry is recorded as “inhibited” and the lymphocyte proliferation entry is listed as “inhibited the lymphocyte proliferation”.
For α-Bungarotoxin [α-BTX], in the assay on PHA-activated PBMCs, the IFN-γ entry is listed as “activated again” and the TNF-α result is listed as “activated again”. Further, in the assay with MLR-activated PBMCs, the IFN-γ result was “activated again” and the TNF-α result was “activated again”.
On to `CC(=O)OCC[N+](C)(C)C.[Cl-]` [ACh-Cl, ACh chloride], for which, in the assay with PHA-activated PBMCs (setting [2]), the IFN-γ entry is on record as “significantly inhibited” and the TNF-α entry was “significantly inhibited”. Besides, in the assay with MLR-activated PBMCs (setting [3]), the IFN-γ entry is given as “significantly inhibited” and the TNF-α result is listed as “significantly inhibited”.

Values taken from patent publication US20190262404A1, “PHARMACEUTICAL COMPOSITION FOR PREVENTING OR TREATING IMMUNE DISEASE OR INFLAMMATORY DISEASE INCLUDING INFLAMMATORY STIMULATED MESENCHYMAL STEM CELL” (SCM LIFESCIENCE CO., LTD., priority 2016, published 2019).
